The values below come from ChEMBL document CHEMBL3137667, “[Drug-induced liver injury; fourteenth updated edition of the bibliographic database of liver injuries and related drugs]” (Gastroenterol Clin Biol, 2004).

The conditions of data set [1]: human.
The conditions of data set [2]: human. The source holds these as a separate data set.
The conditions of data set [3]: human. This is another data set of the same source.
For data set [4] the following is noted: human. This is another data set of the same source.
The conditions of data set [5]: human. The source holds these as a separate data set.
For data set [6] the following is noted: human. The source holds these as a separate data set.
A short description of data set [7]: Highest frequency of acute liver toxicity observed during clinical trials, expressed as a percentage. [column '% AIGUE' in source]. The following applies: human.
For data set [8] the following is noted: human. This is another data set of the same source.
For data set [9] the following is noted: human, serum.
A short description of data set [10]: Times to onset, minimal and maximal, observed in the indexed observations. [column 'DELAI' in source]. The note with it: human.
The conditions of data set [11]: human. The source holds these as a separate data set.
For data set [12] the following is noted: human, serum, 4383 h.
For data set [13] the following is noted: human. The source holds these as a separate data set.
The conditions of data set [14]: human, serum. This is another data set of the same source.
A short description of data set [15]: Highest frequency of moderate liver toxicity observed during clinical trials, expressed as a percentage. [column '% BIOL' in source]. The following applies: human.
Data set [16] in a line: Proposed mechanism(s) of liver damage. [column 'MEC' in source]. The following applies: human.
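For Hepatotoxicity (association with vascular disease) in this document: count of indexed literature references reporting vascular liver injury in humans, e.g. peliosis hepatitis, hepatic veno-occlusive disease or Budd-Chiari syndrome.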
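For Hepatotoxicity (benign tumour) in this document: value is a count of indexed literature references citing a benign tumour confirmed by histopathology.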
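For Hepatotoxicity (choleostasis) in this document: human cholestatic liver injury, shown by histopathology or by peak ALT or AST elevation over alkaline phosphatase ratio below 2, value counts indexed literature reports.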
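For Hepatotoxicity (chronic liver disease) in this document: chronic liver injury confirmed by histopathology or persistently raised serum aminotransferase activity beyond 6 months, value given as the count of indexed literature references.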
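For Hepatotoxicity (cirrhosis) in this document: value is a count of indexed literature references reporting cirrhosis confirmed by histopathology.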
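For Hepatotoxicity (cytolytic) in this document: human cytolytic liver injury, shown by histopathology or by a ratio above 5 of peak ALT or AST elevation to alkaline phosphatase elevation, value counts indexed references.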
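For Hepatotoxicity (granulomatous hepatitis) in this document: value is a count of indexed literature references reporting granulomatous liver disease confirmed by histopathology.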
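For Hepatotoxicity (malignant tumour) in this document: malignant tumour confirmed by histopathology, value gives the count of indexed literature references reporting it.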
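For Hepatotoxicity (severe hepatitis) in this document: human clinical data: severe hepatitis, meaning potentially life-threatening liver failure or clinically observed cases, the value counts how many indexed literature references report it.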
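For Hepatotoxicity (steatosis) in this document: steatosis confirmed by histopathology, value is the count of indexed references.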

With `Cc1nnc(SCC2=C(C(=O)O)N3C(=O)[C@@H](NC(=O)Cn4cnnn4)[C@H]3SC2)s1` [CEFAZOLIN], the “Hepatotoxicity (association with vascular disease)” value in [1] amounted to 0. Further, the “Hepatotoxicity (choleostasis)” value in data set [2] came out at 1. In data set [3], the “Hepatotoxicity (cytolytic)” value is listed as 1. In addition, the “Hepatotoxicity (cirrhosis)” value in data set [4] is recorded as 0. In addition, the “Hepatotoxicity (granulomatous hepatitis)” value in [5] amounted to 0. Moreover, the “Hepatotoxicity (steatosis)” value in data set [6] turned out to be 0. The “Hepatotoxicity (acute)” value is listed as 0% in data set [7] (Liver) and 2 in [9]. In data set [8] (Liver), the “Hepatotoxicity (severe hepatitis)” value was 0. Also, the “Hepatotoxicity (time to onset)” value in data set [10] is on record as 1 week - 25 days. Moreover, in data set [11], the “Hepatotoxicity (malignant tumour)” value amounted to 0. For the same compound, in data set [12], the “Hepatotoxicity (chronic liver disease)” value came out at 0. For the same compound, the “Hepatotoxicity (benign tumour)” value in data set [13] is listed as 0. The “Hepatotoxicity (moderate)” value in data set [14] amounted to 11; in [15] (Liver), 42.9%. Also, the “Hepatotoxicity (mechanism)” value in data set [16] is “Allergic”.
On to `NC(=O)NC(=O)Cc1ccccc1` [PHENACEMIDE], for which, in data set [1], the “Hepatotoxicity (association with vascular disease)” value was 0. Moreover, the “Hepatotoxicity (choleostasis)” value in [2] is listed as 0. In data set [3], the “Hepatotoxicity (cytolytic)” value is on record as 8. Further, in [4], the “Hepatotoxicity (cirrhosis)” value was 0. Moreover, the “Hepatotoxicity (granulomatous hepatitis)” value in data set [5] stood at 0. Moreover, the “Hepatotoxicity (steatosis)” value in [6] turned out to be 0. Further, the “Hepatotoxicity (acute)” value was found to be 3% in data set [7] and 13 in data set [9]. The “Hepatotoxicity (severe hepatitis)” value in data set [8] is recorded as 8. In addition, in data set [10], the “Hepatotoxicity (time to onset)” value was determined as 1 month - 3 months. The “Hepatotoxicity (malignant tumour)” value in data set [11] is on record as 0. For the same compound, the “Hepatotoxicity (chronic liver disease)” value in data set [12] came out at 0. The “Hepatotoxicity (benign tumour)” value in data set [13] worked out at 0. For the same compound, the “Hepatotoxicity (moderate)” value in data set [14] is 1; in data set [15], 0%. The “Hepatotoxicity (mechanism)” value in [16] is on record as “Allergic”.
Regarding `CC(=O)CCC1C(=O)N(c2ccccc2)N(c2ccccc2)C1=O` [KEBUZONE], in data set [1], the “Hepatotoxicity (association with vascular disease)” value worked out at 0. In addition, the “Hepatotoxicity (choleostasis)” value in data set [2] turned out to be 3. Further, the “Hepatotoxicity (cytolytic)” value in data set [3] is reported as 3. For the same compound, the “Hepatotoxicity (cirrhosis)” value in data set [4] turned out to be 0. In [5], the “Hepatotoxicity (granulomatous hepatitis)” value was 0. In addition, in data set [6], the “Hepatotoxicity (steatosis)” value amounted to 0. The entries for the “Hepatotoxicity (acute)” value in [7] and in data set [9] were 2.7% and 4, respectively. Further, the “Hepatotoxicity (severe hepatitis)” value in data set [8] was determined as 0. In [10], the “Hepatotoxicity (time to onset)” value was 1 week - 1 month. Also, the “Hepatotoxicity (malignant tumour)” value in [11] worked out at 0. Also, in data set [12], the “Hepatotoxicity (chronic liver disease)” value was determined as 0. In data set [13], the “Hepatotoxicity (benign tumour)” value amounted to 0. Also, the figures for the “Hepatotoxicity (moderate)” value in data set [14] and in [15] were 1 and 26.7%, respectively. The “Hepatotoxicity (mechanism)” value in data set [16] is “Allergic”.
With STIBOGLUCONATE, the “Hepatotoxicity (association with vascular disease)” value in [1] is recorded as 0. In addition, the “Hepatotoxicity (choleostasis)” value in data set [2] was found to be 0. For the same compound, the “Hepatotoxicity (cytolytic)” value in [3] is given as 1. The “Hepatotoxicity (cirrhosis)” value in [4] came to 0. Moreover, the “Hepatotoxicity (granulomatous hepatitis)” value in data set [5] is listed as 0. For the same compound, the “Hepatotoxicity (steatosis)” value in [6] was found to be 0. Moreover, the “Hepatotoxicity (acute)” value in data set [7] came out at 2%; in [9] it was 2. For the same compound, the “Hepatotoxicity (severe hepatitis)” value in data set [8] is 0. In addition, the “Hepatotoxicity (time to onset)” value in data set [10] is 1 week - 3 weeks. In addition, the “Hepatotoxicity (malignant tumour)” value in data set [11] amounted to 0. In [12], the “Hepatotoxicity (chronic liver disease)” value is reported as 0. For the same compound, in [13], the “Hepatotoxicity (benign tumour)” value turned out to be 0. Moreover, the “Hepatotoxicity (moderate)” value in data set [14] came to 12; in data set [15], 61.5%. In addition, in data set [16], the “Hepatotoxicity (mechanism)” value is on record as “Dose-dependant”.
With `CCCc1nn(C)c2c(=O)[nH]c(-c3cc(S(=O)(=O)N4CCN(C)CC4)ccc3OCC)nc12`, in [1], the “Hepatotoxicity (association with vascular disease)” value was 0. Further, the “Hepatotoxicity (choleostasis)” value in [2] is reported as 0. For the same compound, the “Hepatotoxicity (cytolytic)” value in [3] is 2. The “Hepatotoxicity (cirrhosis)” value in data set [4] came out at 0. The “Hepatotoxicity (granulomatous hepatitis)” value in [5] stood at 0. Further, the “Hepatotoxicity (steatosis)” value in data set [6] was 0. In addition, the “Hepatotoxicity (acute)” value in [7] is listed as 0%; in data set [9] it was 2. Besides, in [8], the “Hepatotoxicity (severe hepatitis)” value stood at 0. Besides, the “Hepatotoxicity (time to onset)” value in data set [10] is 2 days - 4 months. Besides, in data set [11], the “Hepatotoxicity (malignant tumour)” value worked out at 0. In addition, in [12], the “Hepatotoxicity (chronic liver disease)” value came to 0. Also, the “Hepatotoxicity (benign tumour)” value in data set [13] is reported as 0. Further, the “Hepatotoxicity (moderate)” value in data set [14] was 0; in data set [15], 0%. Besides, the “Hepatotoxicity (mechanism)” value in data set [16] is on record as “Dose-dependant”.
For `CC(=O)Nc1cc([As](=O)(O)O)ccc1O` [ACETARSONE], the “Hepatotoxicity (association with vascular disease)” value in [1] is reported as 0. Moreover, the “Hepatotoxicity (choleostasis)” value in [2] was found to be 0. Besides, in data set [3], the “Hepatotoxicity (cytolytic)” value worked out at 0. Also, the “Hepatotoxicity (cirrhosis)” value in data set [4] came to 0. The “Hepatotoxicity (granulomatous hepatitis)” value in data set [5] is recorded as 0. In data set [6], the “Hepatotoxicity (steatosis)” value amounted to 0. Further, the results for the “Hepatotoxicity (acute)” value in data set [7] and in data set [9] were 0% and 2, respectively. Besides, the “Hepatotoxicity (severe hepatitis)” value in data set [8] came out at 0. In [10], the “Hepatotoxicity (time to onset)” value is recorded as 2 cures - 3 cures. The “Hepatotoxicity (malignant tumour)” value in data set [11] is 0. Further, the “Hepatotoxicity (chronic liver disease)” value in [12] is reported as 0. Moreover, the “Hepatotoxicity (benign tumour)” value in data set [13] stood at 0. For the same compound, the “Hepatotoxicity (moderate)” value in [14] stood at 0; in [15] it was 0%. The “Hepatotoxicity (mechanism)” value in data set [16] was “Allergic”.
Regarding `O=c1n(CCCN2CCN(c3cccc(Cl)c3)CC2)nc2ccccn12` [TRAZODONE], the “Hepatotoxicity (association with vascular disease)” value in data set [1] stood at 0. In addition, in data set [2], the “Hepatotoxicity (choleostasis)” value is reported as 3. Besides, in [3], the “Hepatotoxicity (cytolytic)” value came to 5. For the same compound, in data set [4], the “Hepatotoxicity (cirrhosis)” value was found to be 0. The “Hepatotoxicity (granulomatous hepatitis)” value in data set [5] came to 0. Moreover, the “Hepatotoxicity (steatosis)” value in data set [6] is given as 0. For the same compound, the “Hepatotoxicity (acute)” value in data set [7] turned out to be 0%; in [9] it was 8. Moreover, the “Hepatotoxicity (severe hepatitis)” value in [8] stood at 1. The “Hepatotoxicity (time to onset)” value in data set [10] is listed as 5 days - 18 months. Further, the “Hepatotoxicity (malignant tumour)” value in data set [11] came out at 0. The “Hepatotoxicity (chronic liver disease)” value in data set [12] came out at 1. Moreover, the “Hepatotoxicity (benign tumour)” value in data set [13] is reported as 0. The “Hepatotoxicity (moderate)” value in [14] is 0; in [15], 0%. Besides, in [16], the “Hepatotoxicity (mechanism)” value was “Allergic”.
Regarding `CO/N=C(\C(=O)N[C@@H]1C(=O)N2C(C(=O)O)=C(COC(N)=O)CS[C@H]12)c1ccco1` [CEFUROXIME], in [1], the “Hepatotoxicity (association with vascular disease)” value is recorded as 0. Besides, the “Hepatotoxicity (choleostasis)” value in data set [2] is reported as 0. In [3], the “Hepatotoxicity (cytolytic)” value stood at 1. Moreover, the “Hepatotoxicity (cirrhosis)” value in [4] worked out at 0. Moreover, in data set [5], the “Hepatotoxicity (granulomatous hepatitis)” value is listed as 0. Further, the “Hepatotoxicity (steatosis)” value in [6] turned out to be 0. The “Hepatotoxicity (acute)” value in data set [7] is listed as 0%; in data set [9], 1. Further, the “Hepatotoxicity (severe hepatitis)” value in data set [8] is recorded as 1. The “Hepatotoxicity (time to onset)” value in data set [10] was found to be 2 days. Also, the “Hepatotoxicity (malignant tumour)” value in data set [11] was 0. For the same compound, the “Hepatotoxicity (chronic liver disease)” value in [12] was 0. Also, the “Hepatotoxicity (benign tumour)” value in data set [13] was determined as 0. In addition, the results for the “Hepatotoxicity (moderate)” value in [14] and in [15] were 8 and 29.1%, respectively. Moreover, the “Hepatotoxicity (mechanism)” value in data set [16] is “Allergic”.
Consider `Cc1ncc(C[n+]2csc(CCO)c2C)c(N)n1` [THIAMINE ION], for which, in data set [1], the “Hepatotoxicity (association with vascular disease)” value was 0. For the same compound, the “Hepatotoxicity (choleostasis)” value in [2] (Liver) worked out at 0. In addition, in data set [3] (Liver), the “Hepatotoxicity (cytolytic)” value amounted to 0. Further, the “Hepatotoxicity (cirrhosis)” value in data set [4] was 0. For the same compound, in data set [5] (Liver), the “Hepatotoxicity (granulomatous hepatitis)” value turned out to be 0. Moreover, the “Hepatotoxicity (steatosis)” value in [6] is listed as 1. The figures for the “Hepatotoxicity (acute)” value in data set [7] (Liver) and in [9] were 0% and 0, respectively. For the same compound, the “Hepatotoxicity (severe hepatitis)” value in data set [8] (Liver) was found to be 0. In addition, in data set [10], the “Hepatotoxicity (time to onset)” value is 2 years. The “Hepatotoxicity (malignant tumour)” value in data set [11] was determined as 0. Moreover, the “Hepatotoxicity (chronic liver disease)” value in [12] was found to be 1. Moreover, in [13], the “Hepatotoxicity (benign tumour)” value is recorded as 0. In addition, the “Hepatotoxicity (moderate)” value in data set [14] turned out to be 0; in [15] (Liver), 0%. Moreover, the “Hepatotoxicity (mechanism)” value in data set [16] (Liver) is given as “Dose-dependant”.
Consider `CN1c2ccccc2C(NCCCCCCC(=O)O)c2ccc(Cl)cc2S1(=O)=O` (centres undefined) [TIANEPTINE], for which the “Hepatotoxicity (choleostasis)” value in data set [2] was 2. Further, the “Hepatotoxicity (cytolytic)” value in data set [3] was determined as 3. For the same compound, in [4], the “Hepatotoxicity (cirrhosis)” value is 0. The “Hepatotoxicity (granulomatous hepatitis)” value in data set [5] is recorded as 0. In addition, the “Hepatotoxicity (steatosis)” value in [6] was determined as 1. The entries for the “Hepatotoxicity (acute)” value in data set [7] and in data set [9] were 0% and 4, respectively. The “Hepatotoxicity (severe hepatitis)” value in [8] is recorded as 0. For the same compound, the “Hepatotoxicity (time to onset)” value in [10] came out at 1 week - 6 months. Moreover, in data set [11], the “Hepatotoxicity (malignant tumour)” value stood at 0. Moreover, in data set [12], the “Hepatotoxicity (chronic liver disease)” value is on record as 0. The “Hepatotoxicity (benign tumour)” value in [13] amounted to 0. Also, the “Hepatotoxicity (moderate)” value in data set [14] is recorded as 0; in [15], 0%. For the same compound, the “Hepatotoxicity (mechanism)” value in data set [16] is given as “Reactive metabolite”.
